Laboratory results from US20240246964A1 (Arbutus Biopharma Corporation, priority 2021, published 2024).

Target: human PD-L1 (Homo sapiens (Human), UniProt Q9NZQ7)
Assay: T cell activation luciferase reporter cell culture system (T Cell Activation Assay)
Format: cell-based
Settings: luciferase reporter assay; PD-L1 aAPC/CHO-K1 cells with PD-1 effector Jurkat T cells

Chain of human PD-L1 (Q9NZQ7 19-290): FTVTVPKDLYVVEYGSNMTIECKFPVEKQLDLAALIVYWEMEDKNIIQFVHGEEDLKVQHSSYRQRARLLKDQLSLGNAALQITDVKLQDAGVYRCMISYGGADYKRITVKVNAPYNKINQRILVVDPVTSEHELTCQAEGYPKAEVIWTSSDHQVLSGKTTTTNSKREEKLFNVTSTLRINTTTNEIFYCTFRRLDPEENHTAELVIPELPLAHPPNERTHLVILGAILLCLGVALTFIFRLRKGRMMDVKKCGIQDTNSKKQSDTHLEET

EC50 [nM] | SMILES
19.9 | COc1cc(-c2nccc(-c3cccc(-c4ccc(CNC5CC6(COC6)C5)c(OC)n4)c3Cl)c2Cl)ccc1CNC1CC2(COC2)C1 (stereo not shown) [Example 365, N-(4-(4-(3-(5-(((2-Oxaspiro[3.3]heptan-6-yl)amino)methyl)-6-methoxypyridin-2-yl)-2-chlorophenyl)-3-chloropyridin-2-yl)-2-methoxybenzyl)-2-oxaspiro[3.3]heptan-6-amine]
159 | COc1cc(-c2nccc(-c3cccc4c3CC[C@@H]4Nc3nc(OC)c(CN4CC5(CNC(=O)C5)C4)nc3C(F)(F)F)c2Cl)ccc1CN1CC2(CNC(=O)C2)C1 [Example 366, (S)-2-(4-(3-Chloro-4-(1-((6-methoxy-5-((7-oxo-2,6-diazaspiro[3.4]octan-2-yl)methyl)-3-(trifluoromethyl)pyrazin-2-yl)amino)-2,3-dihydro-1H-inden-4-yl)pyridin-2-yl)-2-methoxybenzyl)-2,6-diazaspiro[3.4]octan-7-one]
412 | COc1cc(-c2nccc(-c3cccc4c3CC[C@@H]4Nc3nc(OC)c(CN4CC5(C4)CN(C(C)=O)C5)nc3C(F)(F)F)c2Cl)ccc1CN1CC2(C1)CN(C(C)=O)C2 [Example 367, (S)-1-(6-((5-((4-(2-(4-((6-Acetyl-2,6-diazaspiro[3.3]heptan-2-yl)methyl)-3-methoxyphenyl)-3-chloropyridin-4-yl)-2,3-dihydro-1H-inden-1-yl)amino)-3-methoxy-6-(trifluoromethyl)pyrazin-2-yl)methyl)-2,6-diazaspiro[3.3]heptan-2-yl)ethan-1-one]
37.4 | COc1cc(-c2nccc(-c3cccc(-c4ccc(CN5CC6(CNC(=O)C6)C5)c(OC)n4)c3Cl)c2C)ccc1CN1CC2(CNC(=O)C2)C1 [Example 368, 2-((6-(2-Chloro-3-(2-(3-methoxy-4-((7-oxo-2,6-diazaspiro[3.4]octan-2-yl)methyl)phenyl)-3-methylpyridin-4-yl)phenyl)-2-methoxypyridin-3-yl)methyl)-2,6-diazaspiro[3.4]octan-7-one]
369 | COc1cc(-c2nccc(-c3cccc(-c4ccc(CN5CC6(C5)CN(C(C)=O)C6)c(OC)n4)c3Cl)c2C)ccc1CN1CC2(C1)CN(C(C)=O)C2 [Example 369, 1-(6-((6-(3-(2-(4-((6-Acetyl-2,6-diazaspiro[3.3]heptan-2-yl)methyl)-3-methoxyphenyl)-3-methylpyridin-4-yl)-2-chlorophenyl)-2-methoxypyridin-3-yl)methyl)-2,6-diazaspiro[3.3]heptan-2-yl)ethan-1-one]
41.2 | COc1nc(-c2cccc(-c3ccnc(-c4cc(OC)c5nc(CN[C@H]6C[C@](C)(O)C6)nn5c4)c3Cl)c2Cl)ccc1CNC[C@@H]1CCC(=O)N1 [Example 370, (S)-5-((((6-(2-Chloro-3-(3-chloro-2-(2-((((1r,3r)-3-hydroxy-3-methylcyclobutyl)amino)methyl)-8-methoxy-[1,2,4]triazolo[1,5-a]pyridin-6-yl)pyridin-4-yl)phenyl)-2-methoxypyridin-3-yl)methyl)amino)methyl)pyrrolidin-2-one]
48.7 | COc1cc(-c2nccc(-c3cccc(-c4ccc(CNC5CCN(C(C)=O)CC5)c(OC)n4)c3Cl)c2Cl)ccc1CNC1CCN(C(=O)C(C)C)CC1 [Example 371, 1-(4-((4-(4-(3-(5-(((1-acetylpiperidin-4-yl)amino)methyl)-6-methoxypyridin-2-yl)-2-chlorophenyl)-3-chloropyridin-2-yl)-2-methoxybenzyl)amino)piperidin-1-yl)-2-methylpropan-1-one]
23.5 | COc1cc(-c2nccc(-c3cccc(-c4ccc(CNC5CCN(S(C)(=O)=O)CC5)c(OC)n4)c3Cl)c2Cl)ccc1CNC1CCN(S(C)(=O)=O)CC1 [Example 372, N-((6-(2-Chloro-3-(3-chloro-2-(3-methoxy-4-(((1-(methylsulfonyl)piperidin-4-yl)amino)methyl)phenyl)pyridin-4-yl)phenyl)-2-methoxypyridin-3-yl)methyl)-1-(methylsulfonyl)piperidin-4-amine]
152 | COc1cc(-c2nccc(-c3cccc(-c4ccc(CNCCCCC(N)=O)c(OC)n4)c3Cl)c2Cl)ccc1CNCCCCC(N)=O [Example 373, 5-(((6-(3-(2-(4-(((5-Amino-5-oxopentyl)amino)methyl)-3-methoxyphenyl)-3-chloropyridin-4-yl)-2-chlorophenyl)-2-methoxypyridin-3-yl)methyl)amino)pentanamide]
44.6 | COc1cc(-c2nccc(-c3cccc(-c4ccc(CN[C@@H]5CCN(C(C)=O)C5)c(OC)n4)c3Cl)c2Cl)ccc1CN[C@@H]1CCN(C(C)=O)C1 [Example 374, 1-((R)-3-(((6-(3-(2-(4-((((R)-1-Acetylpyrrolidin-3-yl)amino)methyl)-3-methoxyphenyl)-3-chloropyridin-4-yl)-2-chlorophenyl)-2-methoxypyridin-3-yl)methyl)amino)pyrrolidin-1-yl)ethan-1-one]
405 | COc1nc(-c2cccc(-c3ccnc(-c4cnc5c(CN6CCC(NC(C)=O)CC6)cn(C)c5c4)c3Cl)c2Cl)ccc1CNC[C@@H]1CCC(=O)N1 [Example 377, (S)—N-(1-((6-(3-chloro-4-(2-chloro-3-(6-methoxy-5-((((5-oxopyrrolidin-2-yl)methyl)amino)methyl)pyridin-2-yl)phenyl)pyridin-2-yl)-1-methyl-1H-pyrrolo[3,2-b]pyridin-3-yl)methyl)piperidin-4-yl)acetamide]
73.8 | COc1nc(-c2cccc(-c3ccnc(-c4cnc5c(CN6CC7(CNC(=O)C7)C6)cn(C)c5c4)c3Cl)c2Cl)ccc1CNC[C@@H]1CCC(=O)N1 [Example 378, (S)-2-((6-(3-Chloro-4-(2-chloro-3-(6-methoxy-5-((((5-oxopyrrolidin-2-yl)methyl)amino)methyl)pyridin-2-yl)phenyl)pyridin-2-yl)-1-methyl-1H-pyrrolo[3,2-b]pyridin-3-yl)methyl)-2,6-diazaspiro[3.4]octan-7-one]
45.3 | COc1cc(-c2nccc(-c3cccc(-c4ccc(CNC5CCN(C(C)=O)CC5)c(OC)n4)c3Cl)c2Cl)ccc1CNC1CC2(COC2)C1 [Example 379, 1-(4-(((6-(3-(2-(4-(((2-Oxaspiro[3.3]heptan-6-yl)amino)methyl)-3-methoxyphenyl)-3-chloropyridin-4-yl)-2-chlorophenyl)-2-methoxypyridin-3-yl)methyl)amino)piperidin-1-yl)ethan-1-one]
15.3 | COc1cc(-c2nccc(-c3cccc(-c4ccc(CNC5CCN(C(=O)C(C)C)CC5)c(OC)n4)c3Cl)c2Cl)ccc1CNC1CCN(C(C)=O)CC1 [Example 382, 1-(4-(((6-(3-(2-(4-(((1-acetylpiperidin-4-yl)amino)methyl)-3-methoxyphenyl)-3-chloropyridin-4-yl)-2-chlorophenyl)-2-methoxypyridin-3-yl)methyl)amino)piperidin-1-yl)-2-methylpropan-1-one]
70 | COc1nc(-c2cccc(-c3ccnc(-c4cc(OC)c5nc(CN[C@H]6CC[C@H](O)CC6)cn5c4)c3Cl)c2Cl)ccc1CNC[C@@H]1CCC(=O)N1 [Example 384, (S)-5-((((6-(2-Chloro-3-(3-chloro-2-(2-((((1r,4r)-4-hydroxycyclohexyl)amino)methyl)-8-methoxyimidazo[1,2-a]pyridin-6-yl)pyridin-4-yl)phenyl)-2-methoxypyridin-3-yl)methyl)amino)methyl)pyrrolidin-2-one]
17.8 | COc1cc(-c2nccc(-c3cccc(-c4ccc(CN[C@H]5C[C@](C)(O)C5)c(OC)n4)c3Cl)c2Cl)ccc1CN[C@H]1C[C@](C)(O)C1 [Example 385, (1r,3r)-3-(((6-(2-Chloro-3-(3-chloro-2-(4-((((1r,3r)-3-hydroxy-3-methylcyclobutyl)amino)methyl)-3-methoxyphenyl)pyridin-4-yl)phenyl)-2-methoxypyridin-3-yl)methyl)amino)-1-methylcyclobutan-1-ol]
8.22 | COc1cc(-c2nccc(-c3cccc(-c4ccc(CN5CC6(COC6)C5)c(OC)n4)c3Cl)c2Cl)ccc1CN1CC2(COC2)C1 [Example 387, 6-((6-(3-(2-(4-((2-Oxa-6-azaspiro[3.3]heptan-6-yl)methyl)-3-methoxyphenyl)-3-chloropyridin-4-yl)-2-chlorophenyl)-2-methoxypyridin-3-yl)methyl)-2-oxa-6-azaspiro[3.3]heptane]
38.5 | COc1cc(-c2nccc(-c3cccc(-c4ccc(CN5CC[C@H](C(=O)O)C5)c(OC)n4)c3Cl)c2Cl)ccc1CNC1CCN(C(C)=O)CC1 [Example 388, (S)-1-((6-(3-(2-(4-(((1-acetylpiperidin-4-yl)amino)methyl)-3-methoxyphenyl)-3-chloropyridin-4-yl)-2-chlorophenyl)-2-methoxypyridin-3-yl)methyl)pyrrolidine-3-carboxylic acid]
56.6 | COc1cc(-c2nccc(-c3cccc(-c4ccc(CNC5CCN(C(C)=O)CC5)c(OC)n4)c3Cl)c2Cl)ccc1CNCCC(=O)O [Example 390, 3-((4-(4-(3-(5-(((1-acetylpiperidin-4-yl)amino)methyl)-6-methoxypyridin-2-yl)-2-chlorophenyl)-3-chloropyridin-2-yl)-2-methoxybenzyl)amino)propanoic acid]
18 | COc1cc(-c2nccc(-c3cccc(-c4ccc(CNC5CCOCC5)c(OC)n4)c3Cl)c2Cl)ccc1CNC1CCN(C(C)=O)CC1 [Example 391, 1-(4-((4-(3-chloro-4-(2-chloro-3-(6-methoxy-5-(((tetrahydro-2H-pyran-4-yl)amino)methyl)pyridin-2-yl)phenyl)pyridin-2-yl)-2-methoxybenzyl)amino)piperidin-1-yl)ethan-1-one]
17.6 | COc1cc(-c2nccc(-c3cccc(-c4ccc(CNC5CCN(C(C)=O)CC5)c(OC)n4)c3Cl)c2Cl)ccc1CNC1CCOCC1 [Example 392, 1-(4-(((6-(2-chloro-3-(3-chloro-2-(3-methoxy-4-(((tetrahydro-2H-pyran-4-yl)amino)methyl)phenyl)pyridin-4-yl)phenyl)-2-methoxypyridin-3-yl)methyl)amino)piperidin-1-yl)ethan-1-one]
416 | COc1cc(-c2nccc(-c3cccc(-c4ccc([C@H](C)N)c(OC)n4)c3Cl)c2Cl)ccc1[C@H](C)N [Example 393, (S)-1-(6-(3-(2-(4-((S)-1-Aminoethyl)-3-methoxyphenyl)-3-chloropyridin-4-yl)-2-chlorophenyl)-2-methoxypyridin-3-yl)ethan-1-amine]
